Molecules are shown by their SMILES.

By inhibition is commonly meant how much of the control response was suppressed.

The subject of the first assay is SK-MEL-5. Nature of the assay: NCI-60 single-dose screen. The conditions noted are these: Homo sapiens, single dose 10 µM, '-' = no inhibition, read-out: % Growth Inhibition. Format: cell-based. An outline of the steps:
(§1)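 Compounds tested once at 10 μM across the NCI-60 panel of 60 human cancer cell lines spanning nine tumour types (leukemia, lung, colon, CNS, melanoma, ovarian, renal, prostate, breast), run by the NCI Developmental Therapeutics Program.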
With `COc1ccc(CSc2nc(-c3ccc(Cl)cc3)cc(-c3ccc(OC)c(OC)c3)n2)cc1` [Compound 29, 2-(4-Methoxybenzylthio)-4-(4-chlorophenyl)-6-(3,4-dimethoxyphenyl)pyrimidine], the inhibition at 10 µM stood at 22.6%.

The test system of another assay is HOP-62. Kind of assay: NCI-60 single-dose screen. Format: cell-based. The note with it: Homo sapiens, single dose 10 µM, '-' = no inhibition, read-out: % Growth Inhibition. An outline of the steps: as §1
Regarding `COc1ccc(CSc2nc(-c3ccc(Cl)cc3)cc(-c3ccc(OC)c(OC)c3)n2)cc1` [Compound 29, 2-(4-Methoxybenzylthio)-4-(4-chlorophenyl)-6-(3,4-dimethoxyphenyl)pyrimidine], the inhibition at 10 µM turned out to be 16.4%.

Another assay deals with TK-10. Kind of assay: NCI-60 single-dose screen. Format: cell-based. The conditions noted are these: Homo sapiens, single dose 10 µM, '-' = no inhibition, read-out: % Growth Inhibition. An outline of the steps: as §1
Take `COc1ccc(CSc2nc(-c3ccc(Cl)cc3)cc(-c3ccc(OC)c(OC)c3)n2)cc1` [Compound 29, 2-(4-Methoxybenzylthio)-4-(4-chlorophenyl)-6-(3,4-dimethoxyphenyl)pyrimidine]: the inhibition at 10 µM is under 0%.

The test system of a further assay is OVCAR-4. Nature of the assay: NCI-60 single-dose screen. Format: cell-based. The note with it: Homo sapiens, single dose 10 µM, '-' = no inhibition, read-out: % Growth Inhibition. An outline of the steps: as §1
For the compound `COc1ccc(CSc2nc(-c3ccc(Cl)cc3)cc(-c3ccc(OC)c(OC)c3)n2)cc1` [Compound 29, 2-(4-Methoxybenzylthio)-4-(4-chlorophenyl)-6-(3,4-dimethoxyphenyl)pyrimidine], the inhibition at 10 µM came out at 21.9%.

For a further assay, the system named is A498. Kind of assay: NCI-60 single-dose screen. The note with it: Homo sapiens, single dose 10 µM, '-' = no inhibition, read-out: % Growth Inhibition. Format: cell-based. The method in brief:
as §1
As to `COc1ccc(CSc2nc(-c3ccc(Cl)cc3)cc(-c3ccc(OC)c(OC)c3)n2)cc1` [Compound 29, 2-(4-Methoxybenzylthio)-4-(4-chlorophenyl)-6-(3,4-dimethoxyphenyl)pyrimidine], the inhibition at 10 µM was under 0%.

The subject of the next assay is CCRF-CEM. Nature of the assay: NCI-60 single-dose screen. The note with it: Homo sapiens, single dose 10 µM, '-' = no inhibition, read-out: % Growth Inhibition. Format: cell-based. An outline of the steps: as §1
For the compound `COc1ccc(CSc2nc(-c3ccc(Cl)cc3)cc(-c3ccc(OC)c(OC)c3)n2)cc1` [Compound 29, 2-(4-Methoxybenzylthio)-4-(4-chlorophenyl)-6-(3,4-dimethoxyphenyl)pyrimidine], the inhibition at 10 µM is 14.2%.

A further assay relates to HCC-2998. Nature of the assay: NCI-60 single-dose screen. Format: cell-based. The conditions noted are these: Homo sapiens, single dose 10 µM, '-' = no inhibition, read-out: % Growth Inhibition. The method in brief:
as §1
Take `COc1ccc(CSc2nc(-c3ccc(Cl)cc3)cc(-c3ccc(OC)c(OC)c3)n2)cc1` [Compound 29, 2-(4-Methoxybenzylthio)-4-(4-chlorophenyl)-6-(3,4-dimethoxyphenyl)pyrimidine]: the inhibition at 10 µM is under 0%.

The subject of the next assay is SF-539. Kind of assay: NCI-60 single-dose screen. The note with it: Homo sapiens, single dose 10 µM, '-' = no inhibition, read-out: % Growth Inhibition. Format: cell-based. An outline of the steps:
as §1
As to `COc1ccc(CSc2nc(-c3ccc(Cl)cc3)cc(-c3ccc(OC)c(OC)c3)n2)cc1` [Compound 29, 2-(4-Methoxybenzylthio)-4-(4-chlorophenyl)-6-(3,4-dimethoxyphenyl)pyrimidine], the inhibition at 10 µM was 14.7%.

Another assay deals with ACHN 1. Nature of the assay: NCI-60 single-dose screen. The note with it: Homo sapiens, single dose 10 µM, '-' = no inhibition, read-out: % Growth Inhibition. Format: cell-based. An outline of the steps:
as §1
In the case of `COc1ccc(CSc2nc(-c3ccc(Cl)cc3)cc(-c3ccc(OC)c(OC)c3)n2)cc1` [Compound 29, 2-(4-Methoxybenzylthio)-4-(4-chlorophenyl)-6-(3,4-dimethoxyphenyl)pyrimidine], the inhibition at 10 µM worked out at 13.2%.

The next assay concerns T-47D. Kind of assay: NCI-60 single-dose screen. Format: cell-based. The note with it: Homo sapiens, T47D, single dose 10 µM, '-' = no inhibition, read-out: % Growth Inhibition. The method in brief:
as §1
On to `COc1ccc(CSc2nc(-c3ccc(Cl)cc3)cc(-c3ccc(OC)c(OC)c3)n2)cc1` [Compound 29, 2-(4-Methoxybenzylthio)-4-(4-chlorophenyl)-6-(3,4-dimethoxyphenyl)pyrimidine], for which the inhibition at 10 µM came to 34.6%.

A further assay concerns K-562. Nature of the assay: NCI-60 single-dose screen. Format: cell-based. The conditions noted are these: Homo sapiens, K562, single dose 10 µM, '-' = no inhibition, read-out: % Growth Inhibition. The method in brief: as §1
On to `COc1ccc(CSc2nc(-c3ccc(Cl)cc3)cc(-c3ccc(OC)c(OC)c3)n2)cc1` [Compound 29, 2-(4-Methoxybenzylthio)-4-(4-chlorophenyl)-6-(3,4-dimethoxyphenyl)pyrimidine], for which the inhibition at 10 µM was determined as 54.5%.

Another assay deals with NCI-H460. Nature of the assay: NCI-60 single-dose screen. Format: cell-based. The note with it: Homo sapiens, single dose 10 µM, '-' = no inhibition, read-out: % Growth Inhibition. An outline of the steps: as §1
In the case of `COc1ccc(CSc2nc(-c3ccc(Cl)cc3)cc(-c3ccc(OC)c(OC)c3)n2)cc1` [Compound 29, 2-(4-Methoxybenzylthio)-4-(4-chlorophenyl)-6-(3,4-dimethoxyphenyl)pyrimidine], the inhibition at 10 µM came to 21.2%.

Another assay relates to HT29. Nature of the assay: NCI-60 single-dose screen. Format: cell-based. The conditions noted are these: Homo sapiens, HT-29, single dose 10 µM, '-' = no inhibition, read-out: % Growth Inhibition. An outline of the steps: as §1
In the case of `COc1ccc(CSc2nc(-c3ccc(Cl)cc3)cc(-c3ccc(OC)c(OC)c3)n2)cc1` [Compound 29, 2-(4-Methoxybenzylthio)-4-(4-chlorophenyl)-6-(3,4-dimethoxyphenyl)pyrimidine], the inhibition at 10 µM amounted to 38%.

The subject of a further assay is MCF7. Kind of assay: NCI-60 single-dose screen. Format: cell-based. The conditions noted are these: Homo sapiens, single dose 10 µM, '-' = no inhibition, read-out: % Growth Inhibition. An outline of the steps: as §1
In the case of `COc1ccc(CSc2nc(-c3ccc(Cl)cc3)cc(-c3ccc(OC)c(OC)c3)n2)cc1` [Compound 29, 2-(4-Methoxybenzylthio)-4-(4-chlorophenyl)-6-(3,4-dimethoxyphenyl)pyrimidine], the inhibition at 10 µM turned out to be 27.4%.

For the next assay, the system named is BT-549. Nature of the assay: NCI-60 single-dose screen. Format: cell-based. The conditions noted are these: Homo sapiens, single dose 10 µM, '-' = no inhibition, read-out: % Growth Inhibition. The method in brief: as §1
With `COc1ccc(CSc2nc(-c3ccc(Cl)cc3)cc(-c3ccc(OC)c(OC)c3)n2)cc1` [Compound 29, 2-(4-Methoxybenzylthio)-4-(4-chlorophenyl)-6-(3,4-dimethoxyphenyl)pyrimidine], the inhibition at 10 µM was 21.4%.

A further assay concerns COLO 205. Kind of assay: NCI-60 single-dose screen. Format: cell-based. The conditions noted are these: Homo sapiens, single dose 10 µM, '-' = no inhibition, read-out: % Growth Inhibition. An outline of the steps: as §1
With `COc1ccc(CSc2nc(-c3ccc(Cl)cc3)cc(-c3ccc(OC)c(OC)c3)n2)cc1` [Compound 29, 2-(4-Methoxybenzylthio)-4-(4-chlorophenyl)-6-(3,4-dimethoxyphenyl)pyrimidine], the inhibition at 10 µM was determined as 11.3%.

The next assay concerns U251. Kind of assay: NCI-60 single-dose screen. Format: cell-based. The note with it: Homo sapiens, U-251, single dose 10 µM, '-' = no inhibition, read-out: % Growth Inhibition. The method in brief: as §1
On to `COc1ccc(CSc2nc(-c3ccc(Cl)cc3)cc(-c3ccc(OC)c(OC)c3)n2)cc1` [Compound 29, 2-(4-Methoxybenzylthio)-4-(4-chlorophenyl)-6-(3,4-dimethoxyphenyl)pyrimidine], for which the inhibition at 10 µM is 23.3%.

In a further assay the test system is MALME-3M. Nature of the assay: NCI-60 single-dose screen. Format: cell-based. The conditions noted are these: Homo sapiens, single dose 10 µM, '-' = no inhibition, read-out: % Growth Inhibition. An outline of the steps:
as §1
Consider `COc1ccc(CSc2nc(-c3ccc(Cl)cc3)cc(-c3ccc(OC)c(OC)c3)n2)cc1` [Compound 29, 2-(4-Methoxybenzylthio)-4-(4-chlorophenyl)-6-(3,4-dimethoxyphenyl)pyrimidine], for which the inhibition at 10 µM came out at 4.95%.

The subject of the next assay is NCI-H522. Nature of the assay: NCI-60 single-dose screen. Format: cell-based. The conditions noted are these: Homo sapiens, single dose 10 µM, '-' = no inhibition, read-out: % Growth Inhibition. An outline of the steps: as §1
As to `COc1ccc(CSc2nc(-c3ccc(Cl)cc3)cc(-c3ccc(OC)c(OC)c3)n2)cc1` [Compound 29, 2-(4-Methoxybenzylthio)-4-(4-chlorophenyl)-6-(3,4-dimethoxyphenyl)pyrimidine], the inhibition at 10 µM was found to be 23.1%.

For the next assay, the system named is RXF 393. Nature of the assay: NCI-60 single-dose screen. Format: cell-based. The conditions noted are these: Homo sapiens, single dose 10 µM, '-' = no inhibition, read-out: % Growth Inhibition. An outline of the steps: as §1
For `COc1ccc(CSc2nc(-c3ccc(Cl)cc3)cc(-c3ccc(OC)c(OC)c3)n2)cc1` [Compound 29, 2-(4-Methoxybenzylthio)-4-(4-chlorophenyl)-6-(3,4-dimethoxyphenyl)pyrimidine], the inhibition at 10 µM is 24.2%.

Another assay deals with SK-MEL-28. Kind of assay: NCI-60 single-dose screen. The conditions noted are these: Homo sapiens, single dose 10 µM, '-' = no inhibition, read-out: % Growth Inhibition. Format: cell-based. An outline of the steps: as §1
Turning to `COc1ccc(CSc2nc(-c3ccc(Cl)cc3)cc(-c3ccc(OC)c(OC)c3)n2)cc1` [Compound 29, 2-(4-Methoxybenzylthio)-4-(4-chlorophenyl)-6-(3,4-dimethoxyphenyl)pyrimidine], the inhibition at 10 µM was found to be 11.3%.

A further assay deals with LOX IMVI. Nature of the assay: NCI-60 single-dose screen. The note with it: Homo sapiens, single dose 10 µM, '-' = no inhibition, read-out: % Growth Inhibition. Format: cell-based. The method in brief:
as §1
For `COc1ccc(CSc2nc(-c3ccc(Cl)cc3)cc(-c3ccc(OC)c(OC)c3)n2)cc1` [Compound 29, 2-(4-Methoxybenzylthio)-4-(4-chlorophenyl)-6-(3,4-dimethoxyphenyl)pyrimidine], the inhibition at 10 µM was found to be 20.9%.

The next assay deals with MDA-MB-468. Kind of assay: NCI-60 single-dose screen. Format: cell-based. The note with it: Homo sapiens, single dose 10 µM, '-' = no inhibition, read-out: % Growth Inhibition. An outline of the steps: as §1
As for `COc1ccc(CSc2nc(-c3ccc(Cl)cc3)cc(-c3ccc(OC)c(OC)c3)n2)cc1` [Compound 29, 2-(4-Methoxybenzylthio)-4-(4-chlorophenyl)-6-(3,4-dimethoxyphenyl)pyrimidine], the inhibition at 10 µM came to 40.2%.

The values are drawn from publication PMC11576293, “New series of 4,6-diaryl pyrimidines: facile synthesis and antiproliferative activity as dual EGFR/VEGFR-2 inhibitors” (Frontiers in Chemistry, 2024).
